Patent US20240049721A1, “COMPOSITIONS AND METHODS FOR CONTROLLING FUNGI” (priority 2020, published 2024)
Several values for one entry are separate records, joined by “and”; a condition that tells them apart may be missing. Equal values may be shown once.

What was measured:
Fusarium graminearum = type: in vivo; conditions: wheat crop
Leaf blotch = assay: Wheat trial: leaf blotch; type: in vivo; conditions: wheat crop
[1] = Thermal degradation of essential oils at 40° C.; type: physicochemical
Method: AgriCell-encapsulated EOs, which were AC-Eugenol, AC-Geraniol, and AC-Thymol, (200 mg/mL of EO loaded with 200 mg/mL of AgriCell) were diluted 1:10 in deionized water (total volume 1000 μL, 14 replicates for each EO) and the solutions were left at 40° C. for a total period of 7 days. One replicate of each EO per treatment was collected daily and tested for EO content. Results were reported as concentration of EO as function of time for each stability condition.

[2] = Thermogravimetric analysis (TGA) 37° C. to 500° C.; type: physicochemical; conditions: temperature increase from 37° C. to 500° C.
Method: FIG. 9 illustrates thermogravimetric Analysis (“TGA”) between AgriCell encapsulated Thymol (“AC Thymol”) and free Thymol (“Thymol”; not encapsulated by AgriCell) along with gradual increase of temperature from 37° C. to 500° C.

[3] = Loading (encapsulation) efficacy of essential oils into AgriCell; type: physicochemical; conditions: EO encapsulated into AgriCell; original EO concentration 200 mg/mL; UV-Vis at 280 nm after ethanol extraction
Method: After AgriCells are purified, the concentrated AgriCell paste or dry lyophilized powder is loaded with EOs. If dry, the AgriCells are first homogenized into a finer powder through mechanical homogenization. A stock solution from each EO is prepared in ethanol at 100 mg/mL-200 mg/mL. Lyophilized AgriCells would then be suspended in a solution with the EO solution at a ratio of 1 g of dry AgriCells to 10 mL of EO solution. Once resuspended, the ethanol is allowed to evaporate overnight, leaving behind EO encapsulated AgriCells in the process. After this overnight period, encapsulated AgriCells are removed from the beaker, and the EO-encapsulated AgriCell powder is mechanically homogenized. This encapsulated product is ready for resuspension in its appropriate medium. Loading efficacy was measured and/or calculated as percentage of EO loaded into AgriCell after extraction with ethanol 100% v/v and quantification by UV-Vis spectroscopy. Eugenol, geraniol and thymol were quantified at 280 nm.

Botrytis cinerea = conditions: against B. cinerea; reported value; cited from earlier work
[4] = Oxidative degradation of essential oils under UV and Vis light; type: physicochemical
Method: AgriCell-encapsulated EOs, which were AC-Eugenol, AC-Geraniol, and AC-Thymol, (200 mg/mL of EO loaded with 200 mg/mL of AgriCell) were diluted 1:10 in deionized water (total volume 1000 μL, 14 replicates for each EO) and the solutions were left under UV radiation for a total period of 7 days. One replicate of each EO per treatment was collected daily and tested for EO content by UV-Vis spectroscopy as described in Example 2. Results were reported as concentration of EO as function of time for each stability condition.

SMILES: CC(C)(C)C(O)(CCc1ccc(Cl)cc1)Cn1cncn1 (stereo not drawn) [Tebuconazole (Folicur), Tebuconazole]
- Average FHB severity % (Fusarium graminearum): 8.3% and 1.5%
- FHB Incidence % (Fusarium graminearum): 4.2% and 2.5%
- Leaf blotch Incidence % (Leaf blotch): 100%
- Leaf blotch severity % (Leaf blotch): 3.6% and 3.8%

SMILES: Cc1ccc(C(C)C)c(O)c1 [thymol]
- percentage of degradation (thermal) ([1]; 7 days, 20 mg/mL): 79.1%
- start of accelerated degradation (TGA) [2]: about 62 °C
- encapsulation efficacy [3]: 91.8%
- reported EC50 (Botrytis cinerea): 21.32 µg/mL
- oxidative degradation (reduction of EO) ([4]; 7 days, 20 mg/mL): 55.8%

SMILES: C=CCc1ccc(O)c(OC)c1 [eugenol]
- percentage of degradation (thermal) ([1]; 7 days, 20 mg/mL): 82.6%
- encapsulation efficacy [3]: 95.5%
- oxidative degradation (reduction of EO) ([4]; 7 days, 20 mg/mL): 82.6%

SMILES: CC(C)=CCC/C(C)=C/CO [geraniol]
- percentage of degradation (thermal) ([1]; 40° C., day 7, diluted 1:10 in deionized water): 84.2%
- encapsulation efficacy [3]: 89.0%
- oxidative degradation (reduction of EO) ([4]; UV radiation, after 7 days, diluted 1:10 in deionized water): 72.6%
